The record followed here is patent US20110021565A1, “PIPERIDINE DERIVATIVES AS NK3 ANTAGONISTS” (priority 2007, published 2011).

In general, pKi refers to −log10 of the Ki, conventionally taken in molar units.

pKi: −log10 of the molar value. Read-outs that look alike come from different tables or passages of the source.

The assay deals with T1, recombinant human NK3 receptor (Homo sapiens, UniProt P29371).
T1 construct: expressed in transfected cells; host or cells: HEK293 cells, transient expression; membrane preparation
T1 sequence (P29371 1-465): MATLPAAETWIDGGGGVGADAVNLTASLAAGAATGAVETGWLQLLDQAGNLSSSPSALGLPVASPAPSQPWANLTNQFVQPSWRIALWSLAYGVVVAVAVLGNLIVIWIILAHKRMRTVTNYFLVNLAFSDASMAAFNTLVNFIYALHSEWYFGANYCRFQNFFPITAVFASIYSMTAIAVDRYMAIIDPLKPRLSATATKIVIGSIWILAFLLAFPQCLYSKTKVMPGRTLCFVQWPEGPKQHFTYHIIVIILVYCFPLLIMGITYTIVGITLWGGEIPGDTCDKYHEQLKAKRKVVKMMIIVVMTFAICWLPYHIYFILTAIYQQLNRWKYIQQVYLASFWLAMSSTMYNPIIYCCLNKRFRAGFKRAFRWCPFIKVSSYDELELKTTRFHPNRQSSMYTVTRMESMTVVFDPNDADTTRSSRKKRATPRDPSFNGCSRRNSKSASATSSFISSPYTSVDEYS
Put plainly: [3H]SR142801 competition binding assay. A digest of the protocol: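 Ki derived by Cheng-Prusoff from Hill-fitted IC50 curves, duplicates, 10 μM SB222200 defining nonspecific binding. Radioligand used at KD concentration against compound at 0.0003-10 μM; transiently transfected HEK293 membranes, 5 μg/well, 75 min room temperature, Tris-HCl/MnCl2/phosphoramidon/BSA pH 7.4. Filter-bound counts read by scintillation.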

Setting [1] is: [3H]SR142801, membranes of HEK293 cells transiently expressing recombinant human NK3 receptor, read-out: hNK3 Ki.
[2] abbreviates: representative compounds, [3H]SR142801, HEK293 membranes, human NK3 receptor, read-out: Ki NK3 h.

In the case of `CN(Cc1ccc(Cl)cc1)C(=O)C(CCN1CCC(N2CCCC2=O)CC1)c1ccc(Cl)c(Cl)c1` (centres unmarked) [Example 115, N-(4-Chloro-benzyl)-2-(3,4-dichloro-phenyl)-N-methyl-4-[4-(2-oxo-pyrrolidin-1-yl)-piperidin-1-yl]-butyramide], the pKi reads like this: under setting [1], 8.09; under setting [2], 8.09.
Take `CC(CCN1CCC(NS(C)(=O)=O)CC1)(C(=O)NCc1cccc(OC(F)(F)F)c1)c1ccc(Cl)c(Cl)c1` (centres unmarked) [Example 21, 2-(3,4-Dichloro-phenyl)-4-(4-methanesulfonyl-amino-piperidin-1-yl)-2-methyl-N-(3-trifluoromethoxy-benzyl)-butyramide]: the negative-log Ki (pKi) under setting [1] is 6.83.
As for `CCN(C1CCN(CCC(C)(C(=O)N(C)Cc2ccc(C(F)(F)F)cc2)c2ccc(Cl)c(Cl)c2)CC1)S(C)(=O)=O` (centres unmarked) [Example 76, 2-(3,4-Dichloro-phenyl)-4-[4-(ethyl-methanesulfonyl-amino)-piperidin-1-yl]-2,N-dimethyl-N-(4-trifluoromethyl-benzyl)-butyramide], the pKi is, setting by setting: under setting [1], 8.77; under setting [2], 8.77.
Consider `CC(=O)N(C1CC1)C1CCN(CCC(C)(C(=O)N[C@@H](CO)c2ccc(F)cc2)c2ccc(Cl)c(Cl)c2)CC1` (single isomer, unassigned; diastereoisomer 1) [Example 140, 4-[4-(Acetyl-cyclopropyl-amino)-piperidin-1-yl]-2-(3,4-dichloro-phenyl)-N-[1-(4-fluoro-phenyl)-2-hydroxy-ethyl]-2-methyl-butyramide (diastereoisomer 1)], for which, under setting [1], the negative logarithm of the Ki (pKi) was 7.48.
As for `CN(Cc1ccc(Cl)c(C(F)(F)F)c1)C(=O)C(C)(CCN1CCC(N(C2CC2)S(C)(=O)=O)CC1)c1ccc(Cl)c(Cl)c1` (centres unmarked) [Example 58, N-(4-Chloro-3-trifluoromethyl-benzyl)-4-[4-(cyclopropyl-methanesulfonyl-amino)-piperidin-1-yl]-2-(3,4-dichloro-phenyl)-2,N-dimethyl-butyramide], the pKi under setting [1] was 8.44 and the pKi under setting [2] is 8.44.
Turning to `CC(CCN1CCC(N2CCCC2=O)CC1)(C(=O)NC(c1ccccc1)C(F)(F)F)c1ccc(Cl)c(Cl)c1` (centres unmarked) [Example 95, 2-(3,4-Dichloro-phenyl)-2-methyl-4-[4-(2-oxo-pyrrolidin-1-yl)-piperidin-1-yl]-N-(2,2,2-trifluoro-1-phenyl-ethyl)-butyramide], the negative logarithm of the Ki (pKi) was 8.33 under setting [1] and 8.33 under setting [2].
With `CC(=O)N(C1CC1)C1CCN(CCC(C)(C(=O)N[C@@H](CO)c2ccc(Cl)cc2)c2ccc(Cl)c(Cl)c2)CC1` (single isomer, unassigned; diastereoisomer 1) [Example 142, 4-[4-(Acetyl-cyclopropyl-amino)-piperidin-1-yl]-N-[1-(4-chloro-phenyl)-2-hydroxy-ethyl]-2-(3,4-dichloro-phenyl)-2-methyl-butyramide (diastereoisomer 1)], the pKi under setting [1] is 7.96.
Same read-out and setting: the result for `CS(=O)(=O)NC1CCN(CCC(C(=O)NCc2ccc(Cl)c(C(F)(F)F)c2)c2ccc(Cl)c(Cl)c2)CC1` (centres unmarked) [Example 36, N-(4-Chloro-3-trifluoromethyl-benzyl)-2-(3,4-dichloro-phenyl)-4-(4-methanesulfonyl-amino-piperidin-1-yl)-butyramide] reads 6.45; that for `CC(NC(=O)C(C)(CCN1CCC(N2CCCC2=O)CC1)c1ccc(Cl)c(Cl)c1)c1ccc(F)c(C(F)(F)F)c1` (centres unmarked) [Example 125, 2-(3,4-Dichloro-phenyl)-N-[1-(4-fluoro-3-trifluoromethyl-phenyl)-ethyl]-2-methyl-4-[4-(2-oxo-pyrrolidin-1-yl)-piperidin-1-yl]-butyramide], 7.60.
For the molecule `CN(Cc1ccccc1Cl)C(=O)C(C)(CCN1CCC(N2CCCC2=O)CC1)c1ccc(Cl)c(Cl)c1` (centres unmarked) [Example 90, N-(2-Chloro-benzyl)-2-(3,4-dichloro-phenyl)-2,N-dimethyl-4-[4-(2-oxo-pyrrolidin-1-yl)-piperidin-1-yl]-butyramide], the negative logarithm of the Ki (pKi) runs as follows: under setting [1], 8.60; under setting [2], 8.60.
Take `CN(Cc1cccc(F)c1)C(=O)C(CCN1CCC(NS(C)(=O)=O)CC1)c1ccc(Cl)c(Cl)c1` (centres unmarked) [Example 43, 2-(3,4-Dichloro-phenyl)-N-(3-fluoro-benzyl)-4-(4-methanesulfonyl-amino-piperidin-1-yl)-N-methyl-butyramide]: the negative-log Ki (pKi) under setting [1] is 6.59.
On to `CN(Cc1ccc(Cl)cc1)C(=O)C(F)(CCN1CCC(NS(C)(=O)=O)CC1)c1ccc(Cl)c(Cl)c1` (centres unmarked) [Example 62, N-(4-Chloro-benzyl)-2-(3,4-dichloro-phenyl)-2-fluoro-4-(4-methanesulfonyl-amino-piperidin-1-yl)-N-methyl-butyramide], for which the negative logarithm of the Ki (pKi) under setting [1] was 6.98.
For the molecule `CN(Cc1ccc(F)c(C(F)(F)F)c1)C(=O)C(CCN1CCC(NS(C)(=O)=O)CC1)c1ccc(Cl)c(Cl)c1` (centres unmarked) [Example 44, 2-(3,4-Dichloro-phenyl)-N-(4-fluoro-3-trifluoromethyl-benzyl)-4-(4-methanesulfonyl-amino-piperidin-1-yl)-N-methyl-butyramide], the negative logarithm of the Ki (pKi) under setting [1] was 6.88.
Consider `CC(CCN1CCC(NS(C)(=O)=O)CC1)(C(=O)NCc1ccc(Cl)c(Cl)c1)c1ccc(Cl)c(Cl)c1` (centres unmarked) [Example 11, N-(3,4-Dichloro-benzyl)-2-(3,4-dichloro-phenyl)-4-(4-methanesulfonyl-amino-piperidin-1-yl)-2-methyl-butyramide], for which, under setting [1], the pKi is 7.35.
Turning to `CN(Cc1cccc(Cl)c1)C(=O)C(C)(CCN1CCC(NS(C)(=O)=O)CC1)c1ccc(Cl)c(Cl)c1` (centres unmarked) [Example 29, N-(3-Chloro-benzyl)-2-(3,4-dichloro-phenyl)-4-(4-methanesulfonyl-amino-piperidin-1-yl)-2,N-dimethyl-butyramide], under setting [1], the pKi is 7.31.
On to `CC(=O)NC1CCN(CCC(C)(C(=O)N[C@@H](CO)c2ccc(Cl)cc2)c2ccc(Cl)c(Cl)c2)CC1` (single isomer, unassigned; diastereoisomer 2) [Example 157, 4-(4-Acetylamino-piperidin-1-yl)-N-[1-(4-chloro-phenyl)-2-hydroxy-ethyl]-2-(3,4-dichloro-phenyl)-2-methyl-butyramide (diastereoisomer 2)], for which, under setting [1], the negative logarithm of the Ki (pKi) is 6.11.
`CC(=O)N(C)C1CCN(CCC(C)(C(=O)N(C)Cc2ccccc2Cl)c2ccc(Cl)c(Cl)c2)CC1` (centres unmarked) [Example 108, 4-[4-(Acetyl-methyl-amino)-piperidin-1-yl]-N-(2-chloro-benzyl)-2-(3,4-dichloro-phenyl)-2,N-dimethyl-butyramide]: the pKi under setting [1] was 7.92.
Take `CN(Cc1ccc(C(F)(F)F)c(F)c1)C(=O)C(C)(CCN1CCC(NS(C)(=O)=O)CC1)c1ccc(Cl)c(Cl)c1` (single isomer, unassigned) [Example 123, (S or R)-2-(3,4-Dichloro-phenyl)-N-(3-fluoro-4-trifluoromethyl-benzyl)-4-(4-methanesulfonylamino-piperidin-1-yl)-2,N-dimethyl-butyramide]: under setting [1], the pKi is 6.10.
Regarding `COCCN(C(C)=O)C1CCN(CCC(C)(C(=O)N[C@@H](CO)c2ccc(F)cc2)c2ccc(Cl)c(Cl)c2)CC1` (single isomer, unassigned) [Example 151, 4-{4-[Acetyl-(2-methoxy-ethyl)-amino]-piperidin-1-yl}-2-(3,4-dichloro-phenyl)-N-[(R)-1-(4-fluoro-phenyl)-2-hydroxy-ethyl]-2-(S or R) methyl-butyramide], under setting [1], the negative-log Ki (pKi) is 7.68.
As to `CN(Cc1cccc(F)c1)C(=O)C(C)(CCN1CCC(NS(C)(=O)=O)CC1)c1ccc(Cl)c(Cl)c1` (centres unmarked) [Example 30, 2-(3,4-Dichloro-phenyl)-N-(3-fluoro-benzyl)-4-(4-methanesulfonyl-amino-piperidin-1-yl)-2,N-dimethyl-butyramide], the negative-log Ki (pKi) under setting [1] was 6.91.
`CCN(C(C)=O)C1CCN(CCC(C)(C(=O)N[C@@H](CO)c2ccc(F)cc2)c2ccc(Cl)c(Cl)c2)CC1` (single isomer, unassigned; epimer 2) [Example 167]: the pKi under setting [1] was 7.46.
Same read-out and setting: the result for `CN(Cc1ccc(C(F)(F)F)cc1)C(=O)C(F)(CCN1CCC(NS(C)(=O)=O)CC1)c1ccc(Cl)c(Cl)c1` (centres unmarked) [Example 66, 2-(3,4-Dichloro-phenyl)-2-fluoro-4-(4-methanesulfonyl-amino-piperidin-1-yl)-N-methyl-N-(4-trifluoromethyl-benzyl)-butyramide] reads 7.07; that for `CN(Cc1cccc(C(F)(F)F)c1)C(=O)C(CCN1CCC(NS(C)(=O)=O)CC1)c1ccc(Cl)c(Cl)c1` (centres unmarked) [Example 40, 2-(3,4-Dichloro-phenyl)-4-(4-methanesulfonyl-amino-piperidin-1-yl)-N-methyl-N-(3-trifluoromethyl-benzyl)-butyramide], 6.55.
On to `CCN(C1CCN(CCC(C)(C(=O)N[C@H](CO)c2ccc(Cl)c(Cl)c2)c2ccc(Cl)c(Cl)c2)CC1)S(C)(=O)=O` (single isomer, unassigned; diastereoisomer 2) [Example 80, 2-(3,4-Dichloro-phenyl)-N-[1-(3,4-dichloro-phenyl)-2-hydroxy-ethyl]-4-[4-(ethyl-methanesulfonyl-amino)-piperidin-1-yl]-2-methyl-butyramide; diastereoisomer 2], for which the negative logarithm of the Ki (pKi) under setting [1] was 7.88.
